# Results reported in ChEMBL document CHEMBL5038639, “Designed Peptide Inhibitors of STEP Phosphatase-GluA2 AMPA Receptor Interaction Enhance the Cognitive Performance in Rats” (J Med Chem, 2022).
# Calls of active or inactive are those of the source. The rule behind the calls is not given here. Square brackets hold non-standard residues; d marks the D form. Peptide text beside a SMILES is read from it. pY = N[C@@H](Cc1ccc(OP(=O)(O)O)cc1)C(=O)O
# How the values were obtained:
# [1] = tested on: Rattus norvegicus; experiment: Cognitive enhancing effect in Wistar rat model of scopolamine-induced short term memory impairment assessed as increase in spontaneous alteration at 5 mg/kg measured by Y-maze method; format: functional, organism-based
# [2] = tested on: Rattus norvegicus; experiment: Cognitive enhancing effect in Wistar rat model of scopolamine-induced working memory impairment assessed as reduction in number of working memory errors at 5 mg/kg by Radial arm maze task; format: functional, organism-based
# [3] = species: Rattus norvegicus; experiment: Anxiolytic activity in scopolamine-induced Wistar rat assessed as increase in time spent in open arm measured at 15 uM for 5 min by elevated plus maze test; format: functional, organism-based
# [4] = species: Homo sapiens; experiment: Inhibition of GluA2-STEP32 C/S mutant (unknown origin) protein-protein interaction at 0.1 to 1 mM by Western blotting based pulldown assay; settings: dose 0.1-1 mM
# [5] = tested on: HEK293; experiment: Inhibition of GluA2-STEP3 (unknown origin) protein-protein interaction expressed in HEK293 cells assessed as reduction in GluA2 dephosphorylation at pY876 residue at 0.1 mM incubated for 30 min by western blotting analysis; format: cell-based; settings: Homo sapiens
# [6] = target: T1, Tyrosine-protein phosphatase non-receptor type 1 (Homo sapiens) (UniProt P18031); experiment: Inhibition of […] (unknown origin) at 1 mM using pNPP as substrate
# T1 sequence (whole entry): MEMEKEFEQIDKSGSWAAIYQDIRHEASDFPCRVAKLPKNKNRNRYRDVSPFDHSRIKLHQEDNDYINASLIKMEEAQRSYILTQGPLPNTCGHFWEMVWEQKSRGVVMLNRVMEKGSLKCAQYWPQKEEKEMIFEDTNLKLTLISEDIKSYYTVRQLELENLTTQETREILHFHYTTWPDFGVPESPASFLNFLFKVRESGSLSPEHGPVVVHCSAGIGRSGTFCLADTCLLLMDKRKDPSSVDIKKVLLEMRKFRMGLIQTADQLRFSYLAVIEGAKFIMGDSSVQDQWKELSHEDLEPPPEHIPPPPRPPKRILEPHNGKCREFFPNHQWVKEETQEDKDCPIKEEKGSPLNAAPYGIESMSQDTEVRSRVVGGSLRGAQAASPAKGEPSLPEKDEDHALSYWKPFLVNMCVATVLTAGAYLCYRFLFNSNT
# [7] = target: T2, Tyrosine-protein phosphatase non-receptor type 2 (Homo sapiens) (UniProt P17706); experiment: Inhibition of TC-PTP (unknown origin) at 1 mM using pNPP as substrate
# T2 sequence (whole entry): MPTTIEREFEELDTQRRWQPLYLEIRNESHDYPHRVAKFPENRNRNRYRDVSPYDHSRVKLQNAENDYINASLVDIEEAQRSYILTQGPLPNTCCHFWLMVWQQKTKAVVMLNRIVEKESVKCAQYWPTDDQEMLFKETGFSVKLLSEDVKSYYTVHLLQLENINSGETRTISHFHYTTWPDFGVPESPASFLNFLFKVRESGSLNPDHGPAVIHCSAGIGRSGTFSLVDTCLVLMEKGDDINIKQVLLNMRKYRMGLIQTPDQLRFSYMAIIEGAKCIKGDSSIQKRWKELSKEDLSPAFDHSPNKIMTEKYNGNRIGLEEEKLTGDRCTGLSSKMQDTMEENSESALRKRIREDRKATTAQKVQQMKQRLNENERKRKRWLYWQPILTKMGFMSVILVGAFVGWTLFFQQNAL
# [8] = species: Rattus norvegicus; experiment: Cognitive enhancing effect in Wistar rat model of scopolamine-induced short term memory impairment assessed as increase in spontaneous alteration at 15 uM measured by Y-maze method; format: functional, organism-based
# [9] = species: Rattus norvegicus; experiment: Cognitive enhancing effect in Wistar rat model of scopolamine-induced working memory impairment assessed as reduction in number of working memory errors at 15 uM by Radial arm maze task; format: functional, organism-based
# [10] = species: Rattus norvegicus; experiment: Cognitive enhancing effect in Wistar rat model of scopolamine-induced reference memory impairment assessed as reduction in number of reference memory error at 15 uM by Radial arm maze task; format: functional, organism-based
# [11] = species: Rattus norvegicus; experiment: Antidepressant activity in Wistar rat model of scopolamine-induced depressive like behavior assessed as increased swimming time at 15 uM measured after 24 hrs by forced swimming test; format: functional, organism-based
# [12] = species: Rattus norvegicus; experiment: Antidepressant activity in Wistar rat model of scopolamine-induced depressive like behavior assessed as decrease in immobility time at 15 uM measured after 24 hrs by forced swimming test; format: functional, organism-based
# [13] = species: Rattus norvegicus; experiment: Anxiolytic activity in scopolamine-induced Wistar rat assessed as increase in number of entries in open arm measured at 15 uM for 5 min by elevated plus maze test; format: functional, organism-based
# [14] = tested on: HEK293; experiment: Inhibition of GluA2-STEP3 (unknown origin) protein-protein interaction expressed in HEK293 cells assessed as reduction in GluA2 dephosphorylation at pY876 residue at 1 mM incubated for 30 min by western blotting analysis; format: cell-based; settings: Homo sapiens
# [15] = tested on: Hippocampus; experiment: Effect on hippocampal population spike in Wistar rat assessed as increase in spike area and slope at 15 uM measured at 1 hr; format: functional, tissue-based
# [16] = tested on: Hippocampus; experiment: Effect on hippocampal population spike in Wistar rat assessed as increase in spike area and slope at 15 uM measured after 2 hrs; format: functional, tissue-based
# [17] = tested on: Hippocampus; experiment: Effect on hippocampal population spike in Wistar rat assessed as increase in amplitude at 15 uM measured after 3 hrs; format: functional, tissue-based
# [18] = tested on: Hippocampus; experiment: Effect on hippocampal population spike in Wistar rat assessed as decrease in population spike area at 1.5 mM measured upto 3 hrs; format: functional, tissue-based; settings: time hrs <=3
inhibition [4],inhibition [6],inhibition [7],Compound,Activity [1],Activity [2],Activity [3],inhibition [5],Activity [8],Activity [9],Activity [10],Activity [11],Activity [12],Activity [13],inhibition [14],Activity [15],Activity [16],Activity [17],Activity [18]
,,,COc1cc2c(cc1OC)C(=O)C(CC1CCN(Cc3ccccc3)CC1)C2 (centres undefined),Active,Active,,,,,,,,,,,,,
Active,Active,Active,CC(=O)N[C@@H](Cc1ccc(O)cc1)C(=O)NCC(=O)N[C@@H](CCCNC(=N)N)C(=O)N[C@@H](CCCCN)C(=O)N[C@@H](CCCCN)C(=O)N[C@@H](CCCNC(=N)N)C(=O)N[C@@H](CCCNC(=N)N)C(=O)N[C@@H](CCC(N)=O)C(=O)N[C@@H](CCCNC(=N)N)C(=O)N[C@@H](CCCNC(=N)N)C(=O)N[C@@H](CCCNC(=N)N)C(=O)N[C@@H](C)C(=O)N[C@H](C(=O)N[C@@H](Cc1ccc(O)cc1)C(=O)N[C@@H](CCCCN)C(=O)N[C@@H](CCC(=O)O)C(=O)NCC(=O)N[C@@H](Cc1ccc(O)cc1)C(=O)N[C@@H](CC(N)=O)C(=O)N[C@H](C(=O)N[C@@H](Cc1ccc(OP(=O)(O)O)cc1)C(=O)NCC(N)=O)C(C)C)[C@@H](C)O (Ac-YGRKKRRQRRRATYKEGYNV[pY]G-NH2),,,Active,Active,Active,Active,Active,Active,Active,Active,,,,,
Active,Active,Active,CC(=O)N[C@@H](Cc1ccc(O)cc1)C(=O)NCC(=O)N[C@@H](CCCNC(=N)N)C(=O)N[C@@H](CCCCN)C(=O)N[C@@H](CCCCN)C(=O)N[C@@H](CCCNC(=N)N)C(=O)N[C@@H](CCCNC(=N)N)C(=O)N[C@@H](CCC(N)=O)C(=O)N[C@@H](CCCNC(=N)N)C(=O)N[C@@H](CCCNC(=N)N)C(=O)N[C@@H](CCCNC(=N)N)C(=O)N[C@@H](CCC(=O)O)C(=O)NCC(=O)N[C@@H](Cc1ccc(O)cc1)C(=O)N[C@@H](CC(N)=O)C(=O)N[C@H](C(=O)N[C@@H](Cc1ccc(OP(=O)(O)O)cc1)C(N)=O)C(C)C (Ac-YGRKKRRQRRREGYNV[pY]-NH2),,,Active,Active,Active,Active,Active,Active,Active,Active,,,,,
Active,Active,Active,CC(=O)N[C@@H](Cc1ccc(O)cc1)C(=O)NCC(=O)N[C@@H](CCCNC(=N)N)C(=O)N[C@@H](CCCCN)C(=O)N[C@@H](CCCCN)C(=O)N[C@@H](CCCNC(=N)N)C(=O)N[C@@H](CCCNC(=N)N)C(=O)N[C@@H](CCC(N)=O)C(=O)N[C@@H](CCCNC(=N)N)C(=O)N[C@@H](CCCNC(=N)N)C(=O)N[C@@H](CCCNC(=N)N)C(=O)N[C@@H](CCC(=O)O)C(=O)NCC(=O)N[C@@H](Cc1ccc(O)cc1)C(=O)N[C@@H](CC(N)=O)C(=O)N[C@H](C(=O)N[C@@H](Cc1ccc(OP(=O)(O)O)cc1)C(=O)N[C@@H](CCC(=O)O)C(N)=O)C(C)C (Ac-YGRKKRRQRRREGYNV[pY]E-NH2),,,Active,Active,Active,Active,Active,Active,Active,Active,Active,Active,inactive,Active,Active
,Active,Active,Ac-YGRKKRRQRRRATYKEGYNVYG-NH2,,,Active,,Active,Active,Active,Active,Active,Active,,,,,
